As a reminder, the pIC50 is the negative decadic logarithm of the IC50, by convention in mol/L. Low readings indicate a high IC50, high ones a low IC50. The term IC50 denotes the midpoint of a concentration-inhibition curve.

Assay [1] deals with Histone deacetylase (Eimeria tenella). The experiment in a line: Displacement of [3H]-Apicidin A from Histone deacetylase of Eimeria tenella extract. For orientation: Loss of bound radioactivity is the signal in a displacement assay; it reports binding, not function.
The nature of assay [2]: Tested for parasite (malaria)-based antiproliferative assay. The format is functional.
Assay [3] concerns the target Histone deacetylase. The experiment in a line: Inhibition of [3H]-Apicidin A binding to Histone deacetylase of chick liver extract. On the set-up: species or system Gallus gallus.
The subject of another assay is HeLa. The experiment in a line: Tested for mammalian cell (HeLa)-based antiproliferative assay. It is filed as functional, Homo sapiens.
Assay [4] addresses Histone deacetylase. The assay is described as follows: Tested for Histone deacetylase enzyme inhibition assay using mammalian cell nuclear extract (HeLa). It is filed as protein assay, Homo sapiens.
A short description of assay [5]: Tested for parasite (malaria)-based antiproliferative assay; ND means no data. It is filed as functional.

Each structure is given as a SMILES string. pIC50: −log10 of the molar value. ≈ marks a conversion by molar mass, not a printed value.

`CCC(=O)CCCCC[C@@H]1NC(=O)[C@H]2CCCCN2C(=O)[C@H]([C@@H](C)CC)NC(=O)[C@H](Cc2cn(CC)c3ccccc23)NC1=O`: in assay [1], the pIC50 was 6.79. Besides, the IC50 was found to be 0.18 µg/mL (≈ 0.289 µM) in assay [2] and 0.01 µg/mL (≈ 0.0161 µM) on Histone deacetylase [3].

The compound `CCC(=O)CCCCC[C@@H]1NC(=O)[C@H]2CCCCN2C(=O)[C@H]([C@@H](C)CC)NC(=O)[C@H](c2cn(C)c3ccccc3c2=O)NC1=O` [listing 1 of 2 here] yielded an AP50 in the assay on HeLa above 10000 ng/mL.

As for `CCCn1cc(C[C@@H]2NC(=O)[C@H](CCCCCC(=O)CC)NC(=O)[C@H]3CCCCN3C(=O)[C@H]([C@@H](C)CC)NC2=O)c2ccccc21` [listing 1 of 2 here], the pIC50 in assay [1] was 7.33. Also, the IC50 turned out to be 0.25 µg/mL (≈ 0.393 µM) in assay [2] and 0.01 µg/mL (≈ 0.0157 µM) on Histone deacetylase [3].

For the compound `CCC(=O)CCCCC[C@@H]1NC(=O)[C@H]2CCCCN2C(=O)[C@H]([C@@H](C)CC)NC(=O)[C@H](Cc2cn(CC(=O)OC)c3ccccc23)NC1=O` [listing 1 of 2 here], in the assay with HeLa, the AP50 turned out to be 150 ng/mL.

Regarding `CCC(=O)CCCCC[C@@H]1NC(=O)[C@H]2CCCCN2C(=O)[C@H]([C@@H](C)CC)NC(=O)[C@H](c2cn(C)c3ccccc3c2=O)NC1=O` [listing 2 of 2 here], the pIC50 in assay [1] is 7.02; at Histone deacetylase [4], 6.62. Moreover, the IC50 in assay [2] came out at 0.117 µg/mL (≈ 0.188 µM); at Histone deacetylase [3], 1 µg/mL (≈ 1.61 µM).

Consider `CCC(=O)CCCCC[C@@H]1NC(=O)[C@H]2CCCCN2C(=O)[C@H]([C@@H](C)CC)NC(=O)[C@H](Cc2cn(CC(=O)OC)c3ccccc23)NC1=O` [listing 2 of 2 here], for which the pIC50 in assay [1] was 7.98. Besides, the IC50 was 0.25 µg/mL (≈ 0.375 µM) in assay [2] and 0.005 µg/mL (≈ 0.00751 µM) on Histone deacetylase [3].

In assay [1], `CCC(=O)CCCCC[C@@H]1NC(=O)[C@H]2CCCCN2C(=O)[C@H]([C@@H](C)CC)NC(=O)[C@H](Cc2cn(CC(=O)O)c3ccccc23)NC1=O` had a pIC50 of 7.00. For the same compound, the IC50 on Histone deacetylase [3] is 0.065 µg/mL (≈ 0.0997 µM); in assay [5], 1 µg/mL (≈ 1.53 µM).

Take `CCC(=O)CCCCC[C@@H]1NC(=O)[C@H]2CCCCN2C(=O)[C@H]([C@@H](C)CC)NC(=O)[C@H](Cc2cn(OC)c3ccccc23)NC1=O` [APICIDIN]: the IC50 in assay [2] worked out at 0.057 µg/mL (≈ 0.0914 µM). In the assay on HeLa, the AP50 was 78 ng/mL.

Consider `CCC(=O)CCCCC[C@@H]1NC(=O)[C@H]2CCCCN2C(=O)[C@H]([C@@H](C)CC)NC(=O)[C@H](c2cn(CC(=O)O)c3ccccc3c2=O)NC1=O` [listing 1 of 2 here], for which the pIC50 in assay [1] was 5.52. The figures for the IC50 (in assay [2]; on Histone deacetylase [3]) were 0.55 µg/mL (≈ 0.826 µM) and 5 µg/mL (≈ 7.51 µM), respectively.

The compound `CCCn1cc(C[C@@H]2NC(=O)[C@H](CCCCCC(=O)CC)NC(=O)[C@H]3CCCCN3C(=O)[C@H]([C@@H](C)CC)NC2=O)c2ccccc21` [listing 2 of 2 here] gave an AP50 with HeLa of 625 ng/mL.

Consider `CCC(=O)CCCCC[C@@H]1NC(=O)[C@H]2CCCCN2C(=O)[C@H]([C@@H](C)CC)NC(=O)[C@H](Cc2cn(C)c3ccccc23)NC1=O`, for which the pIC50 in assay [1] is 7.70. Besides, the IC50 in assay [2] was 0.02 µg/mL (≈ 0.0329 µM); at Histone deacetylase [3] it was 0.005 µg/mL (≈ 0.00823 µM). Also, the AP50 in the assay with HeLa amounted to 225 ng/mL.

As to `CCC(=O)CCCCC[C@@H]1NC(=O)[C@H]2CCCCN2C(=O)[C@H]([C@@H](C)CC)NC(=O)[C@H](c2cn(OC)c3ccccc3c2=O)NC1=O`, in assay [1], the pIC50 is 7.20. Besides, the IC50 was 0.04 µg/mL (≈ 0.0627 µM) in assay [2], 86 nM against Histone deacetylase [4] and 1 µg/mL (≈ 1.57 µM) at Histone deacetylase [3]. Also, in the assay on HeLa, the AP50 is 10000 ng/mL.

With `CCC(=O)CCCCC[C@@H]1NC(=O)[C@H]2CCCCN2C(=O)[C@H]([C@@H](C)CC)NC(=O)[C@H](c2cn(CC(=O)OC)c3ccccc3c2=O)NC1=O` [listing 1 of 2 here], the AP50 with HeLa was above 10000 ng/mL.

Turning to `CCCn1cc([C@@H]2NC(=O)[C@H](CCCCCC(=O)CC)NC(=O)[C@H]3CCCCN3C(=O)[C@H]([C@@H](C)CC)NC2=O)c(=O)c2ccccc21` [listing 1 of 2 here], in assay [1], the pIC50 is 6.72. Also, the IC50 in assay [2] worked out at 0.44 µg/mL (≈ 0.677 µM); on Histone deacetylase [4], 230 nM; at Histone deacetylase [3] it was 0.7 µg/mL (≈ 1.08 µM).

Compound `CCCn1cc([C@@H]2NC(=O)[C@H](CCCCCC(=O)CC)NC(=O)[C@H]3CCCCN3C(=O)[C@H]([C@@H](C)CC)NC2=O)c(=O)c2ccccc21` [listing 2 of 2 here] registered an AP50 with HeLa above 10000 ng/mL.

On to `CCC(=O)CCCCC[C@@H]1NC(=O)[C@H]2CCCCN2C(=O)[C@H]([C@@H](C)CC)NC(=O)[C@H](c2cn(CC(=O)O)c3ccccc3c2=O)NC1=O` [listing 2 of 2 here], for which, in the assay with HeLa, the AP50 is above 10000 ng/mL.

With `CCC(=O)CCCCC[C@@H]1NC(=O)[C@H]2CCCCN2C(=O)[C@H]([C@@H](C)CC)NC(=O)[C@H](c2cn(CC)c3ccccc3c2=O)NC1=O`, the pIC50 in assay [1] is 6.96. Also, the IC50 in assay [2] is 0.24 µg/mL (≈ 0.377 µM); on Histone deacetylase [4], 330 nM; on Histone deacetylase [3] it was 2 µg/mL (≈ 3.15 µM). For the same compound, the AP50 with HeLa was above 10000 ng/mL.

In assay [1], `CCC(=O)CCCCC[C@@H]1NC(=O)[C@H]2CCCCN2C(=O)[C@H]([C@@H](C)CC)NC(=O)[C@H](c2cnc3ccccc3c2O)NC1=O` gave a pIC50 of 7.61. Also, the IC50 in assay [2] worked out at 0.04 µg/mL (≈ 0.0658 µM); on Histone deacetylase [3], 1 µg/mL (≈ 1.65 µM). This compound also displayed an AP50 in the assay on HeLa above 10000 ng/mL.

The compound `CCC(=O)CCCCC[C@@H]1NC(=O)[C@H]2CCCCN2C(=O)[C@H]([C@@H](C)CC)NC(=O)[C@H](c2cn(CC(=O)OC)c3ccccc3c2=O)NC1=O` [listing 2 of 2 here] had a pIC50 in assay [1] of 6.36. The IC50 amounted to 0.79 µg/mL (≈ 1.16 µM) in assay [2] and 2 µg/mL (≈ 2.94 µM) at Histone deacetylase [3].
